Laboratory results as given in patent US4160829A, “Antibacterial 1,2,4-oxadiazolylacetamido cephalosporins” (Gist-Brocades N.V., priority 1972, dated 1979).

Experiments:
[1] = system: Staph.aureus A 321; experiment: agar serial dilution test; assay type: cell-based, Staphylococcus aureus; conditions: Staphylococcus aureus, A321, 24 h, agar serial dilution, 24 hours, 37° C.; read-out: minimal inhibitory concentration (MIC)
[2] = system: Staph.aureus A 2001; experiment: agar serial dilution test; assay type: cell-based, Staphylococcus aureus; conditions: Staphylococcus aureus, A2001, 24 h, agar serial dilution, 24 hours, 37° C.; read-out: minimal inhibitory concentration (MIC)
[3] = system: Strep. faec. L 80; experiment: agar serial dilution test; assay type: cell-based, Streptococcus faecalis; conditions: Enterococcus faecalis; agar serial dilution, 24 hours, 37° C.; read-out: minimal inhibitory concentration (MIC)
[4] = system: Dipl.pneum. L 54; experiment: agar serial dilution test; assay type: cell-based, Diplococcus pneumoniae; conditions: Streptococcus pneumoniae; agar serial dilution, 24 hours, 37° C.; read-out: minimal inhibitory concentration (MIC)
[5] = system: Past.multo. A 723; experiment: agar serial dilution test; assay type: cell-based, Pasteurella multocida; conditions: Pasteurella multocida; agar serial dilution, 24 hours, 37° C.; read-out: minimal inhibitory concentration (MIC)
[6] = system: Kleb.pneum. A 809; experiment: agar serial dilution test; assay type: cell-based, Klebsiella pneumoniae; conditions: Klebsiella pneumoniae; agar serial dilution, 24 hours, 37° C.; read-out: minimal inhibitory concentration (MIC)
[7] = system: Salm.dubl. P 43; experiment: agar serial dilution test; assay type: cell-based, Salmonella dublin; conditions: Salmonella enterica; agar serial dilution, 24 hours, 37° C.; read-out: minimal inhibitory concentration (MIC)
[8] = system: Pseud.aerug. 2396; experiment: agar serial dilution test; assay type: cell-based; conditions: agar serial dilution, 24 hours, 37° C.; read-out: minimal inhibitory concentration (MIC)
[9] = system: Pseud.aerug. Wyeth A 1058; experiment: agar serial dilution test; assay type: cell-based; conditions: agar serial dilution, 24 hours, 37° C.; read-out: minimal inhibitory concentration (MIC)
[10] = system: Prot.mirab. H 3; experiment: agar serial dilution test; assay type: cell-based, Proteus mirabilis; conditions: Proteus mirabilis; agar serial dilution, 24 hours, 37° C.; read-out: minimal inhibitory concentration (MIC)
[11] = system: Prot.morg. 2241; experiment: agar serial dilution test; assay type: cell-based; conditions: 24 h, agar serial dilution, 24 hours, 37° C.; read-out: minimal inhibitory concentration (MIC)
[12] = system: Strep.haem A 1088; experiment: agar serial dilution test; assay type: cell-based, Streptococcus haemolyticus; conditions: Streptococcus, A1088, 24 hours, 37° C., read-out: minimal inhibitory concentration (MIC)
[13] = system: Salm.typh. R 172; experiment: agar serial dilution test; assay type: cell-based; conditions: 24 h, read-out: minimal inhibitory concentration (MIC)
[14] = system: Actinob.equ. T 3; experiment: agar serial dilution test; assay type: cell-based; conditions: 24 hours, 37° C., read-out: minimal inhibitory concentration (MIC)
[15] = system: Staph.aureus A 355; experiment: micro serial dilution test; assay type: cell-based, Staphylococcus aureus; conditions: Staphylococcus aureus, A355; micro serial dilution (in brackets), about 18 hours, 30° C. or 37° C.; penicillinase-producing strain; read-out: minimal inhibitory concentration (MIC)
[16] = system: Staph.aureus A 2000; experiment: micro serial dilution test; assay type: cell-based, Staphylococcus aureus; conditions: Staphylococcus aureus, A2000, 18 h, micro serial dilution (in brackets), about 18 hours, 30° C. or 37° C.; read-out: minimal inhibitory concentration (MIC)
[17] = system: Staph.aureus A 2001; experiment: micro serial dilution test; assay type: cell-based, Staphylococcus aureus; conditions: Staphylococcus aureus, A2001, 18 h, micro serial dilution (in brackets), about 18 hours, 30° C. or 37° C.; read-out: minimal inhibitory concentration (MIC)
[18] = system: Prot.mirab. A 1200; experiment: micro serial dilution test; assay type: cell-based; conditions: Proteus mirabilis; micro serial dilution (in brackets), about 18 hours, 30° C. or 37° C.; read-out: minimal inhibitory concentration (MIC)
[19] = system: Haem.Suis A 2096; experiment: micro serial dilution test; assay type: cell-based; conditions: micro serial dilution (in brackets), about 18 hours, 30° C. or 37° C.; read-out: minimal inhibitory concentration (MIC)
[20] = system: Klebsiella pneumoniae A 265; experiment: protection test; assay type: in vivo; conditions: i.p.
[21] = blood and urine contents after intramuscular administration in rabbits; assay type: in vivo, rabbits "Nieuw Zeelander"; conditions: rabbit, im, intramuscular 50 mg/kg
Protocol: (d) the blood and urine contents of the above-indicated compound G and of monosodium 7-[(3-carboxymethyl-1,2,4-oxadiazol-5-yl)acetamido]-3-acetoxymethyl-3-cephem-4-carboxylate (as prepared in example 35) were determined after intramuscular administration of these compounds in an aqueous solution in rabbits, as listed below:
test animals: rabbits "Nieuw Zeelander"
Each testgroup consisted of 3 rabbits.
Vehiculum: Physiol. saline solution
Bloodsamples were taken after 1/4--1/2--1--2--4 hours Urinesamples were taken after 1--3--6--24--27 hours (in practice only the secreted amounts after 6 and 24 hours were used).
Testorganisms: Bacillus subtilis ATCC 6633 and Bacillus callidolactis E 16.
The contents of the compounds in the samples were determined microbiologically.
(Only microbiologically detected concentrations, i.e. anti-bacterially active concentrations only have been indicated and determined in relation to the original administered compound).

[22] = system: Staph.aureus A 355; experiment: agar serial dilution test; conditions: Staphylococcus aureus, A355, 24 h, read-out: minimal inhibitory concentration (MIC), agar serial dilution, 24 hours, 37° C.; penicillinase-producing strain

For `Cc1noc(CC(=O)N[C@@H]2C(=O)N3C(C(=O)O)=C(CSc4nnnn4C)CS[C@H]23)n1` [Compound G, sodium-7[(3-methyl-1,2,4-oxadiazol-5-yl)-acetamido] 3 [1-methyl-tetrazol-5-yl-mercaptomethyl] 3-cephem-4-carboxylate], which MIC [1] is on record?
The MIC was 0.25 µg/mL.

What about the MIC [2] of the same compound?
Its MIC is 0.5 µg/mL.

And the MIC [3]?
Its MIC is 50 µg/mL.

And the MIC [4]?
Its MIC is 0.5 µg/mL.

What about the MIC [5] of the same compound?
Its MIC is 1 µg/mL.

And the MIC [6]?
The MIC was 0.5 µg/mL.

What about the MIC [7] of the same compound?
The MIC was 1.5 µg/mL.

What about the MIC [8] of the same compound?
The MIC was 100 µg/mL.

What about the MIC [9] of the same compound?
Its MIC is 100 µg/mL.

And the MIC [10]?
The MIC was 25 µg/mL.

And the MIC [11]?
The MIC was 100 µg/mL.

What about the MIC [12] of the same compound?
The MIC was 0.25 µg/mL.

And the MIC [13]?
The MIC was 1.5 µg/mL.

What about the MIC [14] of the same compound?
The MIC was 0.5 µg/mL.

And the MIC [15]?
The MIC was 0.9 µg/mL.

And the MIC [16]?
The MIC was 0.6 µg/mL.

And the MIC [17]?
Its MIC is 0.6 µg/mL.

What about the MIC [18] of the same compound?
The MIC was 15 µg/mL.

What about the MIC [19] of the same compound?
The MIC was 0.23 µg/mL.

And the ED50 ([20]; Klebsiella pneumoniae, A265, ip, protection test)?
The ED50 was 86 mg/kg.

And the Potency ratio ([20]; reference Cefalotin)?
Its Potency ratio is 1,09.

What about the concentration at 0.5 h ([21]; serum, after 1/2 hr, read-out: Serumlevel) of the same compound?
The concentration at 0.5 h was 137000 ng/mL.

And the concentration at 0.25 h ([21]; serum, after 1/4 hr, read-out: Serumlevel)?
The concentration at 0.25 h was 157000 ng/mL.

What about the concentration at 1 h ([21]; serum, after 1 hr, read-out: Serumlevel) of the same compound?
The concentration at 1 h was 49000 ng/mL.

What about the concentration at 2 h ([21]; serum, after 2 hr, read-out: Serumlevel) of the same compound?
The concentration at 2 h was 25000 ng/mL.

And the concentration at 4 h ([21]; serum, after 4 hr, read-out: Serumlevel)?
The concentration at 4 h was 6700 ng/mL.

And the dose excreted at 6 h ([21]; urine, after 6 hr, read-out: Secretion of compound in urine in % of the administered dose)?
Its dose excreted at 6 h is 51.3%.

What about the dose excreted at 24 h ([21]; urine, after 24 hr, read-out: Secretion of compound in urine in % of the administered dose) of the same compound?
The dose excreted at 24 h was 55.5%.

What about the MIC [22] of the same compound?
Its MIC is 1 µg/mL.
